Test results taken from patent EP0526840B1, “Condensed naphthyridine derivatives” (KYOWA HAKKO KOGYO CO., LTD., priority 1991, dated 1993).
pIC50: −log10 of the molar value.

How the values were obtained:
hair growth = test: Hair growth stimulation; type: in vivo, C3H/HeSlc-strain mice; conditions: 16th day; applied once a day in ethanol : propyleneglycol (6 : 4); Compound 1 at 0.14 %, Compound 3 at 1.00 % (Table 4)
From the text: Effect of test compound on hair growth in mice was examined. Hair on the back of male C3H/HeSlc-strain mice aged 9 weeks, which was in the telogen of hair cycle was clipped off by an electric hair-clipper. The test compound dissolved in a solvent mixture [ethanol : propyleneglycol (6 : 4)] was uniformly applied to the hair removed area of the mice once a day. The group which received the solvent mixture alone was used as control.
Hair growth stimulation was estimated by measuring the ratio of the hair growing area to the test compound treated area by photograph. In the group having received the test comound, darkening of intraderma (indicating the formation of hair follicles) was observed on the 10th day, and then hair growth rapidly progressed.
In contrast, on the 16th day of the control group, darkening of intraderma was observed only in the part of the solvent treated area and hair growth scarcely occurred. […]

spleen cells = test: Plaque forming cell assay (inhibition of antibody production); type: cell-based, Balb/c strain mice; conditions: Mus musculus, 120 h, inhibition of antibody production (PFC count), incubated 5 days, read-out: Inhibition rate (%); for inhibition at 10 µM: 10^-5M; for inhibition at 1 µM: 10^-6M
Method: The plaque forming cell assay was performed by the following manner with reference to the method of Jerne [Science, 140, 405, (1963)] and the method of Yamamoto et al. [Drugs Exptl. Clin. Res., 8, 5, (1982)].
Male Balb/c strain mice (aged 7 weeks, SLC) were sensitized with 1 x 10^8 sheep red blood cells (Bio Test Research Institute), and 6 or 7 days after the sensitization, the spleen was extirpated. The cells obtained from the spleen were treated with ACT solution (tris-ammonium chloride isotonic buffer) to remove red blood cells. The cells were washed three times with an RPMI-1640 medium (Nissui Pharmaceutical Co., Ltd.). The spleen cells (1 x 10^7 cells), the test compound dissolved in dimethyl sulfoxide and sheep blood red cells (5 x 10^6) were suspended in an RPMI-1640 medium containing 10% bovine serum (Gibco Company), 2-mercaptoethanol (5 x 10^-5M), 50 µg/ml of streptomycin and 50 IU/ml of penicillin. The suspension was distributed into a microculture plate (NUNC Co., Ltd., 24 holes), and incubated for 5 days in a carbon dioxide gas incubator at 37°C.
After the termination of the incubation, the cells were transferred to a plastic test tube. The supernatant was removed by centrifugal separation (2000 rpm), and the pellet was re-suspended in 1 ml of an RPMI-1640 culture medium. The cell suspension, sheep blood red cells, and guinea pig complement (Cedarlene Institute) were incubated by the method of Cunningham [Immunology, 14, 599, (1968)], at 37°C for 1 to 2 hours. The appearing direct plaque cells (PFC count) in suspension were counted. From the resulting PFC count, the inhibition rate of the antibody production of the test compound was determined by the following formula. Inhibition rate (%) =(A - B)/(A)x 100 [formula] A : PFC count in the absence of test compound (dimethylsulfoxide alone) B : PFC count in the presence of test compound

tracheae = test: Passive Schultz-Dale (S-D) reaction, relaxation of antigen-contracted tracheal strips; parameters: species or system Hartley guinea pigs; conditions: Cavia porcellus; concentration of 50% relaxation rate; passively sensitized guinea pig tracheal strips contracted with egg white albumin 1 µg/ml
Method: Male Hartley guinea pigs weighing 350 to 500 g were passively sensitized by intraperitoneal injection of rabbit anti-OA serum prepared in advance by the method of Koda et al. [Folia Pharmacol., Japon 66, 237, (1970)]. After 24 hours, the guinea pigs were stunned and exsanguinated, and then tracheae were removed. The zig-zag strips of the tracheae were prepared by the method of Emmerson and Mackay [J. Pharm. Pharmacol., 31, 798, (1979)]. The strips were suspended in Krebs-Henseleit solution at 37°C under aeration of a mixed gas of 95% oxygen and 5% carbon dioxide, and equilibrated for one hour. Then, antigen (egg white albumin) was introduced in the solution (final concentration; 1 µg/ml), and the contraction was measured by isotonictransducer (TD-112s, Nihon Kohden Co., Ltd.) and recorded on a recorder (Type 3066, Yokogawa-Hokushin Denki, Co., Ltd.). After the contraction curves reached a plateau, the test compounds were successively added in order to get cumulative concentration-relaxation curves. The concentration of 50% relaxation rate (IC50) was calculated from the regression line, which was obtained from the cumulative concentration-relaxation curves.

PAF-induced mortality = test: Inhibition effect on platelet activating factor (PAF)-induced mortality; type: in vivo, dd mice; conditions: Mus musculus, po, 2 h, minimum effective dose, orally, one hour before 40 µg/kg PAF intravenously, mortality two hours after PAF, read-out: Inhibition of PAF-induced mortality MED
Method: The experiment was performed by a minor modification of method of Carlson et al. [Agents and Actions, 21, 379 (1987)]. Groups each consisting of 10 male dd mice (weighing 28 to 32 g) were used, and 100 mg/kg of test compound or a saline (control) was orally administered. One hour after the administration of the test compound, 40 µg/kg of PAF (manufactured by Avanti Polar Lipids Co., Ltd.) were intravenously administered. Two hours after PAF injection, the mortality rate of the animals was observed. […]

Acute toxicity test = type: in vivo, dd-strain mice; conditions: orally administered; mortality observed for seven days
Method: Male dd-strain mice weighing 20 -25 g, groups each consisting of 3 animals, were used, and Compound 1 and Compound 3 were orally administered. MLD was determined by observing the mortality for seven days after the administration. MLD of both compounds were over 300 mg/kg.

CC(C)Cc1n[nH]c2c1c(=O)n(-c1ccccc1)c1ncccc21 [Compound 3, 3-Isobutyl-5-phenyl-1H-pyrazolo[4,3-c][1,8]naphthyridin-4(5H)-one]
Hair growing area (%) Mean ± S.D. (hair growth): 91.8 ± 7.2% | inhibition at 10 µM (spleen cells): 74.9% | inhibition at 1 µM (spleen cells): 77.2% | pIC50 (tracheae): 6.59 | minimal effective dose (PAF-induced mortality): 5 mg/kg | MLD (Acute toxicity test): over 300 mg/kg

Cc1n[nH]c2c1c(=O)n(-c1ccccc1)c1ncccc21 [Compound 2, 3-Methyl-5-phenyl-1H-pyrazolo[4,3-c][1,8]naphthyridin-4(5H)-one]
inhibition at 10 µM (spleen cells): 92.4% | inhibition at 1 µM (spleen cells): 85.8%

O=c1c2c(-c3cccs3)n[nH]c2c2cccnc2n1-c1ccccc1 [Compound 10, 5-Phenyl-3-thienyl-1H-pyrazolo[4,3-c][1,8]naphthyridin-4(5H)-one]
inhibition at 10 µM (spleen cells): 83.9% | inhibition at 1 µM (spleen cells): 57.1% | pIC50 (tracheae): 6.15

COc1ccc(-c2n[nH]c3c2c(=O)n(-c2ccccc2)c2ncccc32)cc1 [Compound 11, 3-(4-methoxyphenyl)-5-phenyl-1H-pyrazolo[4,3-c][1,8]naphthyridin-4(5H)-one]
inhibition at 10 µM (spleen cells): 99.5% | inhibition at 1 µM (spleen cells): 26.5%

Cc1nn(C)c2c1c(=O)n(-c1ccccc1)c1ncccc21 [Compound 4, 1,3-Dimethyl-5-phenyl-1H-pyrazo1o[4,3-c][1,8]naphthyridin-4(5H)-one]
inhibition at 10 µM (spleen cells): 81.4%

Cn1nc(N)c2c(=O)n(-c3ccccc3)c3ncccc3c21 [Compound 6, 3-Amino-1-methyl-5-phenyl-1H-pyrazolo[4,3-c][1,8]naphthyridin-4(5H)-one]
inhibition at 10 µM (spleen cells): 76.5%

Nc1c2c(=O)n(-c3ccccc3)c3ncccc3c2nn1-c1ccccc1 [Compound 7, 3-Amino-2,5-diphenyl-2H-pyrazolo[4,3-c][1,8]naphtyyridin-4(5H)-one]
inhibition at 10 µM (spleen cells): 83.8%

O=c1c2c(-c3ccccc3)n[nH]c2c2cccnc2n1-c1ccccc1 [Compound 1, 3,5-Diphenyl-1H-pyrazolo[4,3-c][1,8]naphthyridin-4(5H)-one]
Hair growing area (%) Mean ± S.D. (hair growth): 91.5 ± 8.0% | inhibition at 10 µM (spleen cells): 85.8% | inhibition at 1 µM (spleen cells): 77.2% | pIC50 (tracheae): 5.50 | minimal effective dose (PAF-induced mortality): 10 mg/kg | MLD (Acute toxicity test): over 300 mg/kg
